Laboratory results from ChEMBL document CHEMBL3507680, “University of Dundee, Gates Library screen for HepG2 cell viability”.

Experiment: Human HepG2 cell viability assay in 384 well format
Format: toxicity, cell-based
Set-up: dose 125 nL, time 70.5 hour; concentration not given beside the values
Details: HepG2 cells, read-out: Inhibition

| Compound | cytotoxicity at 70.5 h |
| --- | --- |
| Cc1cccc(S(=O)(=O)N2CCC3(CC2)CC(N(C)C)CO3)c1 (stereo not given) | -10.7% |
| CCc1cnc(N2CC3(CCN(S(=O)(=O)C4CC4)C3)C2)nc1 | -8.49% |
| O=C(NCC1CC1)[C@@H]1CC[C@@H]2[C@@H](CCN2CCOCc2ccccc2)O1 | -9.94% |
| c1csc(CNCC2COCc3c(-c4ccsc4)nnn3C2)n1 (stereo not given) | -7.15% |
| CC(=O)N1CCC(c2nnc3ccc(C(=O)NCCN(C)C)cn23)C1 (stereo not given) | -10.5% |
| CNC(=O)CN1CCOCC2(C1)CN(Cc1csnn1)CCO2 (stereo not given) | 12.8% |
| Cc1cc(C(=O)N2CCc3ncc(CN4CCCCC4)n3CC2)no1 | 21.9% |
| CNC(=O)[C@H]1C[C@@H]2CN(C(=O)NC(C)C)C[C@H]1O2 | 23% |
| CC(C)CN1C[C@@H]2CN(c3cnccn3)C[C@@H]2C1=O | 29.2% |
| Cc1cnc(N2CCOC3(COCCN(c4nccs4)C3)C2)nc1 (stereo not given) | -4.6% |
| O=C1[C@H]2CN(c3cnccn3)C[C@H]2CN1CC1CC1 | -12.5% |
| Cn1cnc(-c2nc(C(=O)NC3CC3)c3ccccn23)c1 | -1.89% |
| Cc1cnc(N2CCCC3(COCCN(c4nccs4)C3)C2)nc1 (stereo not given) | -8.41% |
| CN(C)C(=O)CO[C@H]1CO[C@@]2(CCN(S(C)(=O)=O)C2)C1 | -6.98% |
| CN(C)C(=O)CO[C@H]1CO[C@@]2(CCN(Cc3ccoc3)C2)C1 | -5.9% |
| Cn1cnc(-c2nc(C(=O)NCC3CCCO3)c3ccccn23)c1 (stereo not given) | -0.333% |
| CNC(=O)[C@@H]1C[C@H]2CN(Cc3ccc(C)o3)C[C@H]2N1C(C)=O | -0.0424% |
| COc1cc(N2CCC3(CC2)C(c2ccncc2)CC(=O)N3C)ncn1 (stereo not given) | -9.06% |
| Cn1cc(N2C(=O)C[C@@H]3[C@@H]2CCN3C(=O)c2ccco2)cn1 | -6.04% |
| CCC(O)CNc1ccc(-c2nc(CC(C)C)no2)cn1 (stereo not given) | -14.3% |
| CCC(CO)N(Cc1ccc(C(=O)O)cc1)Cc1ccsc1 (stereo not given) | -5.5% |
| CC(=O)N1CC[C@]2(O)CCN(Cc3nc(C)c[nH]3)C[C@@H]2C1 | 9.69% |

| Compound | cytotoxicity at 70.5 h |
| --- | --- |
| COc1ccc(Cn2c(CCc3c(C)n[nH]c3C)n[nH]c2=O)cc1 | -3.26% |
| Cc1nc(-c2ccncc2)ncc1C(C)NC(=O)CN1CCOC1=O (stereo not given) | -5.31% |
| Cc1nn(C)c2nc(N3CCNC(=O)C3Cc3ccccc3)sc12 (stereo not given) | -2.78% |
| Cn1cccc1-c1cc(C(=O)N2CCCC2c2nccs2)[nH]n1 (stereo not given) | -0.138% |
| CC(C)N1CCCC2(CCN(C(=O)COCC(F)(F)C(F)F)C2)C1=O (stereo not given) | -3.34% |
| c1cc(CN(CCCn2ccnc2)Cc2ccoc2)ccn1 | -4.93% |
| Cc1cc(CN2CCC(C3CCN(Cc4cccnc4)CC3)C2)[nH]n1 (stereo not given) | -6.23% |
| CSCC[C@@H](CO)Nc1ccc(-c2nc(-c3ccccc3F)no2)cn1 | -6.28% |
| Cc1cccnc1CCNC(=O)CC1C(=O)NCCN1CCC(C)C (stereo not given) | 19.9% |
| O=C1C[C@H]2CC[C@@H](CN1)N2C1CSCCSC1 | 17.4% |
| COc1ccccc1OC1CN(Cc2ccc(C(=O)O)cc2)C1 | -8.2% |
| Cc1ncc(CC(=O)N2CCC3(CCC(=O)N(CCO)C3)CC2)c(=O)[nH]1 | -13.5% |
| CCCn1ncc(-c2ccnc(NC3CCSC3)n2)c1C (stereo not given) | -12.7% |
| COCCN(CCOC)C(=O)c1c[nH]nc1-c1cccc(F)c1 | 0.751% |
| Cc1nccc(NCc2cc3n(n2)CCCN(C(=O)C2CCC2)C3)n1 | 13.7% |
| CCCOc1cccc(-c2nc3c([nH]2)CCNC3)c1 | 5.31% |
| CSc1nnc(CC2CCN(C(=O)CCc3cccnc3)CC2)n1C | -8.7% |
| CNC(=O)c1cc2c(s1)CCN(C(=O)CCC1CCCN(C)C1)C2 (stereo not given) | -7.22% |
| O=C(CN1CCOCC1)N1CCC(c2cc(N3CCCC3)ncn2)CC1 | -3.77% |
| COc1ccc(-n2cc(CCO)cn2)cc1C | -9.33% |
| Cc1nc(C(C)C)sc1C(=O)N(C)Cc1nc(-c2ccccn2)no1 | -9.57% |
| CCc1nc(N2CCC3(CC2)OCCCC3O)ncc1C (stereo not given) | -2.39% |

| Compound | cytotoxicity at 70.5 h |
| --- | --- |
| COc1cc2c(cc1-c1nc3c(cnn3C(C)C3CC3)[nH]1)OCO2 (stereo not given) | -2.31% |
| O=S(=O)(NCc1cc2n(n1)CCNC2)c1ccc(OC(F)(F)F)cc1 | -16.5% |
| CCn1nc(CC(C)C)cc1C(=O)N1CC(c2ccncc2)C1 | -4.86% |
| Cc1ccccc1OCC1CCCN(C(=O)Cc2c[nH]c(=O)[nH]c2=O)C1 (stereo not given) | -0.878% |
| O=C(NCCOCCO)c1cnc(-c2ccccc2)nc1O | -7.84% |
| Cc1c(CN2CCCC(C(=O)CCc3ccccc3)C2)cc(C#N)n1C (stereo not given) | 12% |
| CCCc1nccn1-c1cccc(CN2CCCC2)c1 | -2.36% |
| COCc1nnc(C(=O)N(C)Cc2cnc3ccccn23)o1 | -3.55% |
| Cc1cc(NC(C)c2nnn[nH]2)n2nc(C)c(C)c2n1 (stereo not given) | 5.16% |
| C=Cc1ccc(C(=O)N2CCCC(Nc3ccccc3)C2)cc1 (stereo not given) | 26.6% |
| Cc1[nH]c(-c2ccccc2)nc1C(=O)N1CC[C@H](CO)[C@@H](O)C1 | 23.4% |
| Cc1ccccc1CC1(CO)CCCN(c2ncncc2C(C)C)C1 (stereo not given) | 5.34% |
| Cc1cc(C2CCCCN2C(=O)CN2C(=O)OC(C)(C)C2=O)no1 (stereo not given) | -7.73% |
| FC(F)(F)c1ccc(-c2cc(NC3CCNCC3)nc3[nH]ccc23)nc1 | -7.67% |
| CCn1ccnc1C1CCN(C(=O)C(O)c2ccc(Cl)cc2)CC1 (stereo not given) | -2.92% |
| CCCC(=O)Nc1ccc(CC(=O)N(C)CCc2cn[nH]c2)cc1 | -7.4% |
| CN1CCN(CCn2cnc3c(F)cccc3c2=O)CC1 | -1.43% |
| FC(F)(F)c1cccc(OC2CCN(Cc3c[nH]cn3)CC2)c1 | 45.6% |
| CCCC1C=CCN1C(=O)c1cc(COc2ccccc2)[nH]n1 (stereo not given) | -6.23% |
| O=C(Cc1ccccn1)N1CCCC(c2nccn2CC2CCC2)C1 (stereo not given) | -24.3% |
| Cc1nc2c(c(=O)[nH]1)CCN(C(=O)c1[nH]nc3c1CC(C)CC3)C2 (stereo not given) | 2.4% |
| CCN(Cc1nccn1C)C(=O)c1ccc(NCc2ccc(C)o2)nc1 | 27.2% |

| Compound | cytotoxicity at 70.5 h |
| --- | --- |
| CCN(Cc1cn(CC2CCNCC2)nn1)CC1CCCO1 (stereo not given) | -6.79% |
| CCc1cc(N(C)Cc2ccncn2)n2nccc2n1 | 13.1% |
| CC(NC(=O)c1cc2n(n1)CCCN(C)C2)c1cn2ccsc2n1 (stereo not given) | 24.9% |
| COC[C@@]12CC[C@@H](N3CCOCC3)C[C@H]1CCN(c1ccc(Cl)cn1)C2 | -6.42% |
| O=C(c1cnccn1)N1CCCC(Cn2cc(C3CC3)nn2)C1 (stereo not given) | 15.7% |
| O=C(Cc1cn2ccsc2n1)N1CCOCC(O)(CN2CCCC2)C1 (stereo not given) | -4.72% |
| CC(C)c1nccn1CC(=O)Nc1ccnn1C(C)C(C)C (stereo not given) | -16% |
| Cc1nc(C)c(CCN2CCC(Oc3ccccc3F)CC2)s1 | 8.23% |
| CCNc1ccnc(N2Cc3cnc(CC(C)C)nc3C2)n1 | 18.4% |
| COCCc1noc(-c2ccc(-c3cc[nH]n3)nc2)n1 | -1.45% |
| Cc1csc2c(=O)n(CCN3CCNCC3)cnc12 | 11.9% |
| CCc1cnc(C)nc1NC1CC(=O)N(CC)C1 (stereo not given) | -7.16% |
| O=C(NCC1CCCN(Cc2cccc3nonc23)C1)c1ccc[nH]1 (stereo not given) | 3.08% |
| CCC1CN(C(=O)c2ccc(O)cn2)CCC(=O)N1Cc1ccccc1 (stereo not given) | -3.56% |
| CN(Cc1ccc(CCC(C)(C)O)cc1)CC1(CO)CC1 | -10.9% |
| Cc1cccc(CNC2CC(=O)N(Cc3cccc(F)c3)C2)c1 (stereo not given) | -4.77% |
| c1ccc(-c2cc(NCCCC3CCOC3)n3nccc3n2)cc1 (stereo not given) | -0.688% |
| Cn1c(C(N)=O)cc2c1CN(C(=O)C1CC(=O)N(C(C)(C)C)C1)CC2 (stereo not given) | -2.03% |
| CNc1nc(C)c(-c2nc(-c3c(C)ncc4c3CCNC4)no2)s1 | -16.8% |
| CCOc1cccc(C2CC(=O)NCc3nc(N)sc32)c1 (stereo not given) | -11.2% |
| Cn1ccnc1CN1CCc2ncnc(N3CCCC(C#N)C3)c2CC1 (stereo not given) | 26.4% |
| Cn1nccc1NC(=O)c1cccc(CN2C[C@H]3CC[C@@H](C2)N3)c1 | -1.03% |

| Compound | cytotoxicity at 70.5 h |
| --- | --- |
| Cc1oc(C(C)C)cc1C(=O)N1C[C@H]2CC[C@@H]1CN(C(=O)N(C)C)C2 | 3.52% |
| CCc1ccc2nc(NCCCN(CCO)CCO)cc(C)c2c1 | -3.69% |
| CCn1c(N)nc2cc(C(=O)N3CCCN(C)CC3)cnc21 | 3.17% |
| Cc1cc(C)c(C#N)c(N2CCC3(CCCN(CCO)C3=O)C2)n1 (stereo not given) | 12.1% |
| c1cncc(C[C@@H]2CC[C@H](CN3CCCOCC3)O2)c1 | -10.6% |
| O=C(CSCC1CC1)N1CCCC(c2nccn2Cc2cccnc2)C1 (stereo not given) | -9.29% |
| O=C1CCC2(CCCN(Cc3nnc(C4CC4)o3)C2)CN1CCO (stereo not given) | 3.23% |
| COCC(=O)N1CCCN(Cc2cc(C(C)C)no2)CC1 | 12.3% |
| CC(=O)NCCNC(=O)CCn1c(C)cc2ccccc21 | -3.8% |
| COC(=O)c1ccc(N2CCN(C(=O)CCCc3cn[nH]c3)CC2)cc1 | -2.65% |
| CCN(C(C)=O)C1CCN(c2nccc(C3CCCC3)n2)C1 (stereo not given) | -30.2% |
| CCc1cc(N(C)CCc2c(C)n[nH]c2C)ncn1 | 26.8% |
| Cc1cc2[nH]c(CN3CCOC(c4ccc(F)cc4)C3)cc(=O)n2n1 (stereo not given) | -3.51% |
| Cc1nc2c(c(=O)n1C)CCN(C(=O)CCc1ccccc1O)CC2 | -6.87% |
| CN1C(=O)C2(CCNCC2)c2cc(F)ccc21 | -4.69% |
| CN1C(=O)C2(CCN(S(C)(=O)=O)CC2)c2cc(F)ccc21 | -3.04% |
| CCN(C(=O)c1ccc2nnc(C3CCN(C)C3)n2c1)C(C)C (stereo not given) | -11.3% |
| O=C(c1ccco1)N1CC[C@H]2[C@H]1CC(=O)N2c1cccnc1 | 21.7% |
| CN(C)C(=O)CO[C@H]1CO[C@@]2(CCN(Cc3ccsc3)C2)C1 | -6.3% |
| CN(Cc1cccnc1)C[C@H]1OC[C@@H]2CCN(C(=O)C3CC3)C[C@@H]21 | -9.16% |
| Cc1ccc(CN2CC[C@H]3[C@H](CO[C@H]3CN(C)C)C2)o1 | -11.7% |
| Cn1cc(N2CC[C@@H]3CN(Cc4ccncc4)C[C@H]3C2=O)cn1 | 2.33% |
